Test results: patent US9890166B2, “Imidazopyrrolidine derivatives and their use in the treatment of disease” (NOVARTIS AG, priority 2013, dated 2018)

How the values were obtained:
K-562 cells = experiment: Cell growth inhibition assay (CellTiter-Glo), K-562; conditions: for GI50: Homo sapiens, K562, read-out: K-562 GI50; for K-562 TGI: K-562 cells, total growth inhibition, CellTiter-Glo;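 for all read-outs here: cellular ATP measured by luminescence after 4 days of exposure, 3-fold dilution series from 10 µM, DMSO vehicle-treated cells define 100%, cell-free medium wells −100%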
BRD2 (His-Brd2(60-472)) = BRD2 (His-Brd2(60-472)) (Homo sapiens (Human), UniProt P25440); experiment: TR-FRET in-vitro binding assay for BRD2; conditions: single determination or n ≧ 2 independent determinations, read-out: Biochemical IC50 BRD2
Chain of BRD2 (His-Brd2(60-472)) (P25440 60-472): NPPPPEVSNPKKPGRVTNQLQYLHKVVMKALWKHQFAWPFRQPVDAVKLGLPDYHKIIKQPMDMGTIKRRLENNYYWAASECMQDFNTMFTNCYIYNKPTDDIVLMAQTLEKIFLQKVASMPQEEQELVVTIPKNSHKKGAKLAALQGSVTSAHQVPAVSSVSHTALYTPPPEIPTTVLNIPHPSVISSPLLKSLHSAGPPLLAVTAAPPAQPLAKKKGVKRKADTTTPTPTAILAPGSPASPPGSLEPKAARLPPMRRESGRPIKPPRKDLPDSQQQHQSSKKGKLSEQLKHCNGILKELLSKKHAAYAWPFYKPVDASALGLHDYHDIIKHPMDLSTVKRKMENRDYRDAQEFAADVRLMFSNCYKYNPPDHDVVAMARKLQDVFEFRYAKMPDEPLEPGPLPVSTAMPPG
Protocol: TR-FRET In-Vitro Binding Assays for BRD2, BRD3, and BRD4:
All assays were performed in 384 well microtiter plates. Each assay plate contained 8-point serial dilutions for 40 test compounds, plus 16 high- and 16 low controls. Liquid handling and incubation steps were done on an Innovadyne Nanodrop Express equipped with a robotic arm (Thermo CatX, Perkin Elmer/Caliper Twister II) and an incubator (Liconic STX40, Thermo Cytomat 2C450). The assay plates were prepared by addition of 50 nl per well of compound solution in 90% DMSO HummingBird nanodispenser (Zinsser Analytic). […] Reactions were incubated at 30° C. for 35 minutes. […] After 35 minutes incubation at 30° C., plates were measured in a Perkin Elmer EnVision multilabel reader.
Preparation of Compound Dilutions
Test compounds were dissolved in DMSO (10 mM) and transferred into 1.4 mL flat bottom or V-shaped Matrix tubes carrying a unique 2D matrix. The stock solutions were stored at […] if not used immediately. For the test procedure the vials were defrosted and identified by a scanner whereby a working sheet was generated that guided the subsequent working steps.
Compound dilutions were made in 96 well plates. This format enabled the assay of maximally 40 individual test compounds at 8 concentrations (single points) including 4 reference compounds, if desired (known BET inhibitors from the prior art, for this and other assays of the type disclosed herein). The dilution protocol included the production of “pre-dilution plates”, “master plates” and “assay plates”.
Pre-Dilution Plates: 96 polypropylene well plates were used as pre-dilution plates. A total of 4 pre-dilution plates were prepared including 10 test compounds each on the plate positions A1-A10, one standard compound at A11 and one DMSO control at A12. All dilution steps were done on a HamiltonSTAR robot.
These plates were used directly for the assay which was performed in a total volume of 13.55 μL.

BRD3 (His-Brd3(20-477)) = BRD3 (His-Brd3(20-477)) (Homo sapiens (Human), UniProt Q15059); experiment: TR-FRET in-vitro binding assay for BRD3; conditions: single determination or n ≧ 2 independent determinations, read-out: Biochemical IC50 BRD3
Chain of BRD3 (His-Brd3(20-477)) (Q15059 20-477): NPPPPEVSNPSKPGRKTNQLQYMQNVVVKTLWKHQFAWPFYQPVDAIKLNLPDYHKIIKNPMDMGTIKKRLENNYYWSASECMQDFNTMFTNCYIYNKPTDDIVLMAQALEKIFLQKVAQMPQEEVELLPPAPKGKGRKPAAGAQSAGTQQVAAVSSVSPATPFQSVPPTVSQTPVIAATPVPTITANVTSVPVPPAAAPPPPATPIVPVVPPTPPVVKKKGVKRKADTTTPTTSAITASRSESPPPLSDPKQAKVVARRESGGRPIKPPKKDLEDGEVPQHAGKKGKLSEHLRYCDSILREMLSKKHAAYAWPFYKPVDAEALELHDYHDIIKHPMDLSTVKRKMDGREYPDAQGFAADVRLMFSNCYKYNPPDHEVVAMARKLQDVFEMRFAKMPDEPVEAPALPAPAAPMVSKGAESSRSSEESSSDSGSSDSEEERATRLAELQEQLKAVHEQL
Outline: (§1)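 His-tagged BRD2, BRD3 and BRD4 fragments tested by TR-FRET at 8 compound concentrations, with DMSO stocks at 10 mM. Read on EnVision after 35 min incubation at 30° C.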

[1] = target: CREBBP bromodomain (His-CREBBP(1081-1197)) (Homo sapiens (Human), UniProt Q92793); experiment: AlphaScreen in-vitro binding assay for CREBBP; conditions: single determination or n ≧ 2 independent determinations, read-out: Biochemical IC50 CREBBP
Chain of CREBBP bromodomain (His-CREBBP(1081-1197)) (Q92793 1081-1197): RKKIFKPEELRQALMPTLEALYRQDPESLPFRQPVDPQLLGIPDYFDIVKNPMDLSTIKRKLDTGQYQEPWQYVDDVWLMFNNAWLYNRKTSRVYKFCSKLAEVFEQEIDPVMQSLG
Outline: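 Detection used nickel-chelate acceptor plus streptavidin donor AlphaScreen beads, 1 h room temperature. Percent inhibition fitted by non-linear regression to IC50.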

BRD4 (His-Brd4(44-477)) = BRD4 (His-Brd4(44-477)) (Homo sapiens (Human), UniProt O60885); experiment: TR-FRET in-vitro binding assay for BRD4; conditions: single determination or n ≧ 2 independent determinations, read-out: Biochemical IC50 BRD4
Outline: as §1

MV-4-11 cells = experiment: Cell growth inhibition assay (CellTiter-Glo), MV-4-11; conditions: for GI50: Homo sapiens, MV4-11, read-out: MV-4-11 GI50; for MV-4-11 TGI: MV-4-11 cells, total growth inhibition, CellTiter-Glo;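 for all read-outs here: cellular ATP luminescence after 4 days, 3-fold dilution series from 10 µM top dose, vehicle (0.1% DMSO) set to 100%, cell-free medium set to −100%, day 0 corrected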
THP-1 cells = experiment: Cell growth inhibition assay (CellTiter-Glo), THP-1; conditions: for GI50: Homo sapiens, THP-1, read-out: THP-1 GI50; for THP-1 TGI: THP-1 cells, total growth inhibition, CellTiter-Glo;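 for all read-outs here: viability read as cellular ATP luminescence after 4 days, 3-fold dilution series from 10 µM, DMSO vehicle-treated cells taken as 100%, cell-free medium wells as −100%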

Row | GI50 (K-562 cells) [nM] | IC50 (BRD2 (His-Brd2(60-472))) [nM] | IC50 (BRD3 (His-Brd3(20-477))) [nM] | IC50 [1] [nM] | IC50 (BRD4 (His-Brd4(44-477))) [nM] | GI50 (MV-4-11 cells) [nM] | GI50 (THP-1 cells) [nM] | SMILES | K-562 TGI (K-562 cells) [nM] | MV-4-11 TGI (MV-4-11 cells) [nM] | THP-1 TGI (THP-1 cells) [nM]
1 | 908 | 104 | 93.7 | 3400 | 117 | 97.9 | 208 | Cc1cc(N2C(=O)c3nc(C4CC4)n(C(C)C)c3C2c2ccc(Cl)cc2)cn(C)c1=O (stereo not shown) [Example 28, 6-(4-chlorophenyl)-2-cyclopropyl-5-(1,5-dimethyl-6-oxo-1,6-dihydropyridin-3-yl)-1-isopropyl-5,6-dihydropyrrolo[3,4-d]imidazol-4(1H)-one] | >10000 | 136 | 384
2 | 219 | 98.2 | 76.5 | 1670 | 65.2 | 36.6 | 64.9 | COc1ncc(-c2nc3c(n2C(C)C)C(c2ccc(Cl)cc2)N(c2cc(C)c4onc(C)c4c2)C3=O)c(OC)n1 (stereo not shown) [Example 34, 6-(4-chlorophenyl)-2-(2,4-dimethoxypyrimidin-5-yl)-5-(3,7-dimethylbenzo[d]-isoxazol-5-yl)-1-isopropyl-5,6-dihydropyrrolo[3,4-d]imidazol-4(1H)-one] | >10000 | 76.6 | 109
3 | 946 | 43 | 35 | > 37000 | 21 | 226 | 289 | COc1ccc(-c2nc3c(n2C(C)C)C(c2ccc(Cl)cc2)N(c2cc(C)c4onc(C)c4c2)C3=O)cn1 (stereo not shown) [Example 35, 6-(4-chlorophenyl)-5-(3,7-dimethylbenzo[d]isoxazol-5-yl)-1-isopropyl-2-(6-methoxypyridin-3-yl)-5,6-dihydropyrrolo[3,4-d]imidazol-4(1H)-one] | >10000 | 384 | 462
4 | 250 | 164 | 160 | 2500 | 150 | 59.8 | 115 | CCCn1c(-c2cc(OC)ncc2F)nc2c1C(=O)N(c1cc(C)c(=O)n(C)c1)C2c1ccc(Cl)cc1 (stereo not shown) [Example 36, 6-(4-chlorophenyl)-5-(1,5-dimethyl-6-oxo-1,6-dihydropyridin-3-yl)-2-(5-fluoro-2-methoxypyridin-4-yl)-3-propyl-5,6-dihydropyrrolo[3,4-d]imidazol-4(3H)-one] | >10000 | 104 | 235
5 | 320 | 274 | 164 | 4100 | 166 | 66.9 | 100 | CCCn1c(-c2cncc(C#N)c2)nc2c1C(=O)N(c1cc(C)c(=O)n(C)c1)C2c1ccc(Cl)cc1 (stereo not shown) [Example 37, 5-(4-(4-chlorophenyl)-5-(1,5-dimethyl-6-oxo-1,6-dihydropyridin-3-yl)-6-oxo-1-propyl-1,4,5,6-tetrahydropyrrolo[3,4-d]imidazol-2-yl)nicotinonitrile] | >10000 | 105 | 195
6 | 351 | 41 | 33 | 3050 | 27 | 10.5 | 56.5 | Cc1cc(N2C(=O)c3nc(C4=CCOC4)n(C(C)C)c3[C@H]2c2ccc(Cl)cc2)cn2c(C)nnc12 [Example 48, (R)-6-(4-chlorophenyl)-2-(2,5-dihydrofuran-3-yl)-5-(3,8-dimethyl-[1,2,4]triazolo[4,3-a]pyridin-6-yl)-1-isopropyl-5,6-dihydropyrrolo[3,4-d]imidazol-4(1H)-one] | >10000 | 24.5 | 109
7 | 2040 | 56 | 42 | 2200 | 35 | 191 | 989 | Cc1cc(N2C(=O)c3nc(C4=CCNCC4)n(C(C)C)c3C2c2ccc(Cl)cc2)cn2c(C)nnc12 (stereo not shown) [Example 49, 6-(4-Chlorophenyl)-5-(3,8-dimethyl-[1,2,4]triazolo[4,3-a]pyridin-6-yl)-1-isopropyl-2-(1,2,3,6-tetrahydropyridin-4-yl)-5,6-dihydropyrrolo[3,4-d]imidazol-4(1H)-one] | >10000 | 320 | 1470
8 | 575 | 41 | 23.5 | 5400 | 27 | 28.8 | 233 | Cc1cc(N2C(=O)c3nc(C4=CCN(C)CC4)n(C(C)C)c3C2c2ccc(Cl)cc2)cn2c(C)nnc12 (stereo not shown) [Example 50, 6-(4-Chlorophenyl)-5-(3,8-dimethyl-[1,2,4]triazolo[4,3-a]pyridin-6-yl)-1-isopropyl-2-(1-methyl-1,2,3,6-tetrahydropyridin-4-yl)-5,6-dihydropyrrolo[3,4-d]imidazol-4(1H)-one] | >10000 | 57.1 | 495
9 | 439 | 40 | 25 | 6400 | 19.5 | 22.4 | 212 | Cc1cc(N2C(=O)c3nc(C4=CC(C)(C)NC(C)(C)C4)n(C(C)C)c3C2c2ccc(Cl)cc2)cn2c(C)nnc12 (stereo not shown) [Example 51, 6-(4-Chlorophenyl)-5-(3,8-dimethyl-[1,2,4]triazolo[4,3-a]pyridin-6-yl)-1-isopropyl-2-(2,2,6,6-tetramethyl-1,2,3,6-tetrahydropyridin-4-yl)-5,6-dihydropyrrolo[3,4-d]imidazol-4(1H)-one] | >10000 | 47.9 | 612
10 | 366 | 78 | 38 | 10400 | 55 | 23.8 | 99.5 | Cc1cc(N2C(=O)c3nc(C)n(C(C)C)c3C2c2ccc(Cl)cc2)cn2c(C)nnc12 (stereo not shown) [Example 58, 6-(4-chlorophenyl)-5-(3,8-dimethyl-[1,2,4]triazolo[4,3-a]pyridin-6-yl)-1-isopropyl-2-methyl-5,6-dihydropyrrolo[3,4-d]imidazol-4(1H)-one] | >10000 | 48.75 | 207.5
11 | 117 | 48 | 34 | 5700 | 30 | 17.8 | 41 | Cc1cc(N2C(=O)c3nc(C)n(C(C)C)c3[C@H]2c2ccc(Cl)cc2)cn2c(C)nnc12 [Example 59, (R)-6-(4-chlorophenyl)-5-(3,8-dimethyl-[1,2,4]triazolo[4,3-a]pyridin-6-yl)-1-isopropyl-2-methyl-5,6-dihydropyrrolo[3,4-d]imidazol-4(1H)-one] | >10000 | 34.9 | 114
12 | 280 | 96 | 53.5 | 21900 | 31.5 | 34 | 69 | COc1cc(N2C(=O)c3nc(C4=CCOCC4)n(C(C)C)c3C2c2ccc(Cl)cc2)cc2c1nnn2C (stereo not shown) [Example 60] | >10000 | 63.1 | 132
13 | 116 | 100 | 51.5 | 17900 | 24.5 | 28.2 | 65.4 | COc1cc(N2C(=O)c3nc(C4=CCOCC4)n(C(C)C)c3[C@H]2c2ccc(Cl)cc2)cc2c1nnn2C [Example 61] | >10000 | 55.1 | 149
